# Key:
# Format in all cases: physicochemical
# [1] = Solubility of sodium salt in various aqueous media
# Procedure: To anisole (1.54 L) cooling in dry ice-ethanol bath was added aluminium chloride (495.4 g, 3.71 mol) followed by dichloromethane. 610 g of the crude product containing the compound 8 obtained by Step 1 was dissolved in a mixed solution of dichloromethane (0.51 L) and anisole (1.03 L) and spent 1 hour adding dropwise to the above aluminium chloride solution re-cooling to −40° C. The container used for the dropwise was washed with a mixed solution of dichloromethane (0.36 L) and anisole (0.51 L) and the wash fluid was added to the reaction solution. The reaction solution was stirred at −20° C. for 2 hours, and added to a mixed solution of ethanol (7.1 L), 1 mol/L hydrochloric acid (7.1 L) while stirring under cooling in ice-bath. The mixed solution was stirred for 30 minutes under ice-cooling, dichloromethane (5.14 L) and saturated brine (257 mL) was added, the separated aqueous layer was washed with dichloromethane (5.14 L). The organic layer was extracted with a mixture of water (2.57 L) and saturated brine (100 mL), and the separated aqueous layer was combined with the previous aqueous layer. The aqueous layer was stirred under cooling in ice-bath, and 2 mol/L sodium hydroxide aqueous solution was added to adjust pH to 1.5 and the solution was left to stand. The aqueous layer was concentrated and purified by HP20SS column (eluent: 13% acetonitrile water). Sodium bicarbonate (8.75 g) was added to the collected fractions containing the target product and the resulting solution was concentrated under reduced pressure until 500 mL. The solution was diluted by adding water (1.6 L) and filtered with cotton plug, and then the filtrate was lyophilized to yield the compound 9 (77.8 g). • Elemental analysis: (calculated as C30H33ClN7O10S2Na 4.5H2O) • Calculated: C; 42.13, H; 4.95, N; 11.46, S; 7.50, Cl; 4.14, Na; 2.69(%) • Measured: C; 42.22, H; 4.88, N; 11.24, S; 7.01, Cl; 4.04, Na; 2.74(%) The solubility of the obtained compound 9 in various aqueous medium (water for injection, saline, dextrose solution) was all 100 mg/mL or more, and they are very high solubility.
# [2] = Solubility of the compound (IA) in water
# [3] = pKa measurement by capillary electrophoresis method (CE method); conditions: 25° C., pH 2.5 to 11.5 buffer
# Text: (Measuring Method by Capillary Electrophoresis Method, CE Method)
# It is a method by using Capillary Zone Electrophoresis technique and a method of separation by using free electrophoresis of each sample component in a buffer including electrolyte.
# After injecting a compound solution to fused silica capillary filling a buffer adjusting the pH 2.5 to 11.5, high voltage (Inlet side +, Outlet side −) is on capillary, and then a compound moves at a speed reflecting an ionized state at the pH of the buffer (a compound having (+) charge moves quickly, and a compound having (−) charged moves slowly). pKas was calculated by plotting the difference between the migration time of the compound and that of a neutral molecule (DMSO) against pH, and fitting. […]
# [4] = Dynamic vapor sorption measurement; conditions: 25° C.
# Procedure: Dynamic vapor sorption (DVS) is a gravimetric technique that measures how quickly and how much of water is absorbed and desorbed by a sample in several relative humidity (RH). A degree of water absorption is calculated by weight change in controlled humidity increased from 0% RH to 95% RH stepped 5% or 10%. Similarly, a degree of water desorption is calculated in humidity decreased from 95% RH to 0% RH. An absorption-desorption isotherm is obtained by plotting a value of weight change in each humidity. […] When the anhydrate crystal transforms to hydrate crystal by humidity, the results of measurement indicate transformation humidity and amount of crystal water. The dynamic vapor sorption measurement of the crystalline solid obtained in each example was carried out. The sample of about 18.0 mg was measured and transferred to a sample pan, and it was measured. The measurement condition is shown below. • Device: DVS Advantage made by Surface Measurement Systems LTD. • Measurement point: each 5% from RH95% to RH0%. • Temperature: 25° C. (Method of Measuring the Karl Fischer Method) The results of a dynamic vapor sorption measurement of the type I crystal D obtained in Example 6-1 were shown in FIG. 7 and Table 7. Dynamic vapor sorption measurement can be occurred errors within the range of ±0.5%. An increased amount of water (%) represents an increased amount of the type I crystal at 0% RH.
# [5] = Solid stability test of crystalline solid; conditions: −20±5° C. or 5±5° C., light shielding, double polyethylene bag in metal can, 0, 3, 6, 9, 12 months
# Procedure: The type I crystal D about 1 g was put in a polyethylene bag and tightened with a convex. This bag was further put in a polyethylene bag and tightened with a convex in the same way. The above sample of the same storage conditions was put together in a metal can as a stability evaluation sample. The storage conditions, storage period and test items are as follows.
# • Temperature: −20±5° C. or 5±5° C. • Light shielding • Package form: double polyethylene bag, convex, metal can • Storage period: 0, 3, 6, 9, 12 months (Measurement)
# Using the type I crystal D stored at the above storage conditions and storage period, after viewing the change in appearance, the contents of the compound (IA) and the related substances were measured by the following method.
# Step 1: Preparation of a Sample Solution
# About 40 mg of the sample was weighed precisely, and dissolved in a sample dilution solvent to be exactly 25 mL. • 5 mmol/L phosphate buffer/liquid chromatography acetonitrile mixture (9:1) was used as the above sample dilution solvent was used. Herein, water: 0.05 mol/L sodium dihydrogen phosphate test solution: 0.05 mol/L disodium hydrogen phosphate reagent mixture=18:1:1 (pH is about 7.1) was used as a phosphate buffer. Step 2: HPLC Measurement of Related Substances
# The above sample solution was measured by liquid chromatography under the following test condition to measure peak areas of the compound (IA) and its related substances by the automatic integration method.
# • Column: YMC-UltraHT Pro C18, φ2.0×100 mm, 2 μm, YMC • Column temperature: 35° C. • UV detection wavelength: 261 nm • Mobile phase: [A] […]
# • Flow rate: 0.5 mL per minute (a retention time of the compound (IA) about 5 minutes) The amount of related substances in the sample was determined by using the following formula. […]
# The above standard solution and sample solution was measured by liquid chromatography under the following test condition to determine a peak area of the compound (IA) by an automatic integration method. […]
# The content of related substances in the sample was determined using the following formula. […]
smiles,measurement,setting,value
CC(C)(O/N=C(\C(=O)N[C@@H]1C(=O)N2C(C(=O)[O-])=C(C[N+]3(CCNC(=O)c4ccc(O)c(O)c4Cl)CCCC3)CS[C@H]12)c1csc(N)n1)C(=O)O [compound 9],solubility,"[1]; dextrose solution, saline or isotonic",≥ 100 mg/mL
same,solubility,"[1]; saline, saline or isotonic",≥ 100 mg/mL
same,solubility,"[1]; water for injection, water",≥ 100 mg/mL
CC(C)(O/N=C(\C(=O)N[C@@H]1C(=O)N2C(C(=O)[O-])=C(C[N+]3(CCNC(=O)c4ccc(O)c(O)c4Cl)CCCC3)CS[C@H]12)c1csc(N)n1)C(=O)O (stereo in doubt) [compound (IA)],solubility in water,[2],very low
same,pKa1,[3],4.2
same,pKa2,[3],7.2
CC(C)(O/N=C(\C(=O)N[C@@H]1C(=O)N2C(C(=O)[O-])=C(C[N+]3(CCNC(=O)c4ccc(O)c(O)c4Cl)CCCC3)CS[C@H]12)c1csc(N)n1)C(=O)O [type I crystal D],Increased amount of water (%),"[4]; Relative humidity 0% RH, relative to type I crystal at 0% RH",0.00%
same,Increased amount of water (%),"[4]; Relative humidity 5% RH, relative to 0% RH",3.33%
same,Increased amount of water (%),"[4]; Relative humidity 10% RH, relative to 0% RH",5.26%
same,Increased amount of water (%),"[4]; Relative humidity 15% RH, relative to 0% RH",7.70%
same,Increased amount of water (%),"[4]; Relative humidity 20% RH, relative to 0% RH",10.53%
same,Increased amount of water (%),"[4]; Relative humidity 25% RH, relative to 0% RH",11.67%
same,Increased amount of water (%),"[4]; Relative humidity 30% RH, relative to 0% RH",12.28%
same,Increased amount of water (%),"[4]; Relative humidity 35% RH, relative to 0% RH",12.75%
same,Increased amount of water (%),"[4]; Relative humidity 40% RH, relative to 0% RH",13.16%
same,Increased amount of water (%),"[4]; Relative humidity 45% RH, relative to 0% RH",13.54%
same,Increased amount of water (%),"[4]; Relative humidity 50% RH, relative to 0% RH",13.91%
same,Increased amount of water (%),"[4]; Relative humidity 55% RH, relative to 0% RH",14.25%
same,Increased amount of water (%),"[4]; Relative humidity 60% RH, relative to 0% RH",14.55%
same,Increased amount of water (%),"[4]; Relative humidity 65% RH, relative to 0% RH",14.93%
same,Increased amount of water (%),"[4]; Relative humidity 70% RH, relative to 0% RH",15.26%
same,Increased amount of water (%),"[4]; Relative humidity 75% RH, relative to 0% RH",15.55%
same,Increased amount of water (%),"[4]; Relative humidity 80% RH, relative to 0% RH",15.82%
same,Increased amount of water (%),"[4]; Relative humidity 85% RH, relative to 0% RH",16.08%
same,Increased amount of water (%),"[4]; Relative humidity 90% RH, relative to 0% RH",16.34%
same,Increased amount of water (%),"[4]; Relative humidity 95% RH, relative to 0% RH",16.60%
same,change in appearance on storage,[5],no change in the appearance
same,increase of content of related substances on storage (HPLC),[5],not observed
same,solid storage stability (overall),[5],very stable

# Source: patent publication US10004750B2, “Salt of cephalosporin derivative, its crystalline solid and a method of manufacturing thereof” (Shionogi & Co., Ltd., priority 2014, dated 2018)
